What was measured:
B16 melanoma = B16 melanoma orthotopic xenograft model; type: in vivo,  female mice
Description: FIG. 17: Topical PALA treatment retards melanoma growth and sensitizes melanoma to anti-checkpoint inhibitor therapy in a B16 melanoma orthotopic xenograft model. C57BU/6 female mice (n=4-5/group) were injected subcutaneously bilaterally with B16 melanoma cells (10^5 cells/flank; 8-10 injections total). Tumor volume was measured by caliper every 2-3 days by personnel blinded to treatment group. Data from palpable tumors are graphed as mean±SEM. […] On day 12 post-injection, mice were treated topically with either vehicle (AP0536/29/02) or 1% (w/w) PALA (AP0536/29/02) daily for 12 days. […] On day 7 post-injection, mice were treated topically with either vehicle (AP0536/29/02) or 2% (w/w) PALA (AP0536/29/02) daily for 5 days. Tumors were harvested on day 14 post-injection and tumor lysates analyzed by immunoblot for PD-L1 protein levels and quantified by image densitometry using ImageJ relative to tubulin levels (loading control). Mean±SEM graphed. C. […] On day 7 post-injection, mice were treated topically with either vehicle (AP0536/29/02) or 2% (w/w) PALA (AP0536/29/02) daily for 5 days. Mice were also treated with either isotype or anti-PD-L1/atezolizumab antibodies (100 μg/mouse) every 48 hours intraperitoneally from day 7 to day 19. Significant differences were determined by 2-way ANOVA with Dunnett's multiple comparison test. ***p<0.001

[1] = system: MOC-1 squamous cell carcinoma cells; assay: Oral squamous cell carcinoma orthotopic xenograft (tongue); type: in vivo, C57Bl/6 mice; conditions: 2% (w/w) PALA (AP0536/29/02), tongue treated topically 5×/week
Description: FIG. 18: Tumor growth of oral squamous cell carcinoma orthotopic xenografts is retarded by topical PALA treatment. C57Bl/6 mice (males and females; n=6/group) were injected with MOC-1 squamous cell carcinoma cells in the tongue. Once palpable tumors formed, mouse tongues were treated topically 5×/week with vehicle (AP0536/29/02) or 2% (w/w) PALA (AP0536/29/02). Tumor volume was measured by caliper every 2-3 days. Data are graphed as mean±SEM. Significant differences were determined by Mixed-effects Model (REML) with Sidak's multiple comparison test. *p<0.05, ****p<0.0001.

[2] = system: cytokines and chemokines in treated skin; conditions: mouse, in vivo
Description: The topical formulations of 2% PALA/50% acetone/10% glycerol, 5% imiquimod (IMQ), 5% 5-FU (5-FU), vehicle (50% acetone/10% glycerol) control, and Aquaphor were applied (~0.05 g/mouse) daily to the dorsal skin of SKH1-Elite female mice (8 weeks of age; n=5/group) for 7 days. […] Mice were monitored daily for weight change, skin appearance, and signs of distress.
Skin protein lysates were made by homogenizing frozen tissue with a pestle and scissors in RIPA buffer (50 mM Tris, pH8, 150 mM NaCl, 0.5% sodium deoxycholate, 1% NP-40, 0.1% sodium dodecyl sulfate, lx Pierce protease inhibitor cocktail (A32965, ThermoFisher)). Cytokines and chemokines were quantified from 25 μg of lysate using a custom 10-plex U-PLEX panel (K15069L-2; Meso Scale Discovery) that included: GM-CSF, KC/CXCL1, IFNα, IFNβ, IFNγ, IL-10, IL-6, IL-12p70, IL-17A, IL-17C, IL-17F, IP-10/CXCL10, MCP-1/CCL2, RANTES/CCL5, and TNFα. The MESO SECTOR S 600 plate reader (ICOAA-0; Meso Scale Discovery) was used to collect the U-Plex data and data was analyzed using MSD Discovery Workbench 4.0 software.

[3] = Toxicity markers in UVB-tumor-bearing mice under topical treatment (weight, SAA, colon length, fecal LCN2)
Description: Serum amyloid A levels were measured in plasma samples using the Mouse SAA ELISA kit (E-90SAA, Immunology Consultants Laboratory, Inc.) according to manufacturer's instructions. Lipocalin-2 (LCN2) was quantified from pre-weighed stool samples homogenized in 0.5 mL PBS using the Mouse Lipocalin-2/NGAL DuoSet ELISA (DY1857) and DuoSet Ancillary Reagent Kit 2 (DY008, R&D Systems).

## O=C(O)CC(NC(=O)CP(=O)(O)O)C(=O)O [PALA, N-phosphonacetyl-L-aspartate]
B16 melanoma; 1% (w/w) PALA (AP0536/29/02), topical daily for 12 days from day 12 post-injection
  tumor growth (tumor volume): retards tumor growth
B16 melanoma; 2% (w/w) PALA (AP0536/29/02), topical daily for 5 days
  PD-L1 protein levels in tumor lysates: reduces expression of the checkpoint inhibitor PD-L1
B16 melanoma; 2% (w/w) PALA daily for 5 days plus anti-PD-L1/atezolizumab 100 μg/mouse i.p. every 48 hours
  response to anti-PD-L1 therapy: sensitizes B16 melanoma to anti-PD-L1 therapy
[1]
  tumor growth (tumor volume): retarded
[2]
  GM-CSF, Mean (SEM): 1.0 (0.1)
  IL-6, Mean (SEM): 38.8 (8.1)
  IL-17A, Mean (SEM): 0.5 (0.09)
  IL-17C, Mean (SEM): 0.6 (0.1)
  KC, Mean (SEM): 31.1 (2.8)
  RANTES, Mean (SEM): 46.4 (9.6)
  expression of inflammatory cytokine/chemokine panel in treated skin (in words): no changes
[3]; 1, 2 or 5% (w/v) PALA in 50% acetone/10% glycerol, daily topical, 10 weeks
  skin irritation or weight loss: no apparent skin irritation or weight loss
[3]; 1, 2 or 5% (w/v) PALA vs vehicle, daily topical, 10 weeks, trends of higher SAA at 1% and 5%
  circulating levels of serum amyloid A (SAA) at endpoint: No significant differences
[3]; 1, 2 or 5% (w/v) PALA, daily topical, 10 weeks
  gross colon pathology and colon lengths at harvest: None of the mice had any apparent gross colon pathology or significant differences in colon lengths
[3]; 2% (w/w) PALA (AP0536/29/02) vs 5% 5-FU and 5% IMQ, daily, 4 weeks
  change in weight from the start of treatment: maintain weight is better than 5-FU or IMQ treated mice
[3]; 2% PALA, daily topical, 10 weeks
  weight, SAA levels, gross intestinal pathology, LCN2 levels vs vehicle: no significant differences
[3]; 5% PALA, daily topical, 10 weeks, vehicle 18.1±6.0, p=0.032
  fecal lipocalin-2 (LCN2) at endpoint: 186.8±121.1
[3]; 10 weeks of daily treatment
  concentration up to which topical PALA is well tolerated: up to 5 % (w/v)
